Test results published in patent US20080293087A1, “SULFONYLUREA RECEPTOR SHORT FORMS FROM MITOCHONDRIA AND USES THEREOF” (priority 2006, published 2008).

Columns and labels:
KIR6.2/NMT 55-SUR2B = experiment: Inside-out patch-clamp potassium current, ATP sensitivity; assay type: cell-based, mouse; conditions: 100 μM ATP, COS1 cells containing KIR6.2/NMT 55-SUR2B, 0 mV, room temperature (FIG. 4C)
Procedure: (§1) Cellular Electrophysiology: Electrophysiology experiments were carried out as previously described by Chutkow el al., with modifications. Chutkow W, et al., “Alternative splicing of sur2 Exon 17 regulates nucleotide sensitivity of the ATP-sensitive potassium channel,” J. Biol. Chem. 274:13656-13665 (1999). Briefly, KIR^6.2 was sub-cloned to 5′ of a bicistronic vector (pIRGFP, as pNQ56.) to express the desired NMT-SUR2 short forms and GFP under control of a cytomegalovirus promoter. The KIR6.2 construct was transiently expressed in COS1 cell lines that stably expressed NMT 55-SUR2A or NMT 55-SUR2B. Cells expressing GFP were used for cellular electrophysiological analysis.
(§2) Potassium currents were measured at room temperature (˜22-25° C.) by an inside-out patch-clamp technique. The bath solution (cytoplasmic side) comprised the following: 140 mM KCl, 2 mM cthylene glycol-bis(β-aminioethyl ether)-N,N,N′,N′-tetraacetic acid (EGTA), 5.5 mM glucose and 5 mM N-2-hydroxyethylpiperazine-N′-2-ethanesulfonic acid (HEPES) with pH 7.3. The pH was adjusted to the designated values using KOH or HCl. 100 μM K2ATP (Sigma) was used to test the ATP sensitivity, and the ATP-containing solutions were freshly prepared. […] Signals were recorded continuously at 0 mV using a patch-clamp amplifier (Axopatch 200; Molecular Devices; Toronto, Canada) and Clampex 10.0 software (Molecular Devices).

KIR6.2/NMT 55-SUR2A = experiment: as above; assay type: cell-based, mouse; conditions: 100 μM ATP, COS1 cells containing KIR6.2/NMT 55-SUR2A, 0 mV, room temperature (FIG. 3C)
Procedure: as §1, §2

KIR6.2 (mouse) = KIR6.2 (mouse) (UniProt Q61743); experiment: cell-based or functional assay
UniProt Q61743, sequence (Q61743 whole entry): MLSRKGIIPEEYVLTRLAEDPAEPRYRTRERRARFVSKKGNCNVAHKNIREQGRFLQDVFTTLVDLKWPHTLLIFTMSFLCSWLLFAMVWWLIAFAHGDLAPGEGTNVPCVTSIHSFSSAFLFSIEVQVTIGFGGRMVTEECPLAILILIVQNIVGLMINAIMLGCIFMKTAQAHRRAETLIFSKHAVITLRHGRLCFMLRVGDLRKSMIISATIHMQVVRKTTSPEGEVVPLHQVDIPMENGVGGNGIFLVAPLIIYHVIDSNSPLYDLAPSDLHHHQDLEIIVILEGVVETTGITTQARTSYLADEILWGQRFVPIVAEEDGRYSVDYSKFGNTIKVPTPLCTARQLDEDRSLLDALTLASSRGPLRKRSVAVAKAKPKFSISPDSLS

| Compound | IKATP-like current (KIR6.2/NMT 55-SUR2B) | IKATP-like current (KIR6.2/NMT 55-SUR2A) | growth of E. coli K+ uptake mutant 6106 in M9 minimal medium pH 5.5 (KIR6.2 (mouse)) |
| --- | --- | --- | --- |
| Nc1ncnc2c1ncn2[C@@H]1O[C@H](COP(=O)([O-])OP(=O)(O)OP(=O)([O-])O)[C@@H](O)[C@H]1O.[K+].[K+] [ATP] | inhibited | inhibited | – |
| SUR2B short form (~55 kDa) (from UniProt P70170 1-1504) | – | – | 12% |
